Results published in patent US20150087673A1, “METHODS FOR USING AND BIOMARKERS FOR AMPK-ACTIVATING COMPOUNDS” (RIGEL PHARMACEUTICALS, INC., priority 2013, published 2015).

Legend:
db/db mice [1] = assay: [U-13C]-palmitate tracer analysis (13CO2/12CO2 enrichment) in db/db mice; type: in vivo, mouse
Excerpt: The elevated levels of BHBA detected by the global metabolite profiling are an indirect indicator of an increase in lipid oxidation. […] Appearance of ^13CO2 occurs via β-oxidation of the labeled palmitate to release ^13C-acetyl CoA, which must pass through one round of the TCA cycle before the labeled carbon can be given off as ^13CO2. An increased β-oxidation rate will result in a corresponding increase in ^13CO2 enrichment. In agreement with the elevation in relative BHBA levels detected in liver, adipose, and skeletal muscle tissues, an increase in ^13CO2 enrichment is observed for compound 309 treatment across all three tissues at both 60 and 120 minutes after palmitate administration. Ratios of ^13CO2 to ^12CO2 were higher for all treatment groups, including the vehicle, at 120 minutes compared to 60 minutes after palmitate feeding (FIG. 2). This time-dependent elevation was due to the slow absorption kinetics of the orally administered tracer suspension.
Male db/db mice (8 weeks) were orally gavaged once daily with vehicle, 5 mg/kg compound 309, or 10 mg/kg compound 309. Thirty minutes after dosing at day 8, 0.5 mg/kg of the metabolic tracer was administered, either via intraperitoneal injection for [U-^13C]-glucose or oral gavage for [U-^13C]-palmitate, followed by collection of liver, muscle, adipose tissue, and plasma at the timepoints indicated in the figure legends. Frozen samples were sent to SiDMAP, LLC (Los Angeles, Calif.) for isotope tracer analysis [Boros L G, Huang D, Heaney A P (2012) Fructose Drives Glucose via Direct Oxidation and Promotes Palmitate/Oleate Co-Release from Hepg2 Cells: Relevance with the Randle Cycle. […]
The elevated levels of BHBA detected by the global metabolite profiling are an indirect indicator that compound 309 treatment increases lipid oxidation. […] In agreement with the elevation in relative BHBA levels detected in liver, adipose, and skeletal muscle tissues, an increase in ^13CO2 enrichment is observed for compound 309 treatment across all three tissues at both 60 and 120 minutes after palmitate administration. […]

[2] = Compound plasma levels after oral dosing; type: in vivo, mouse
Experimental: Metabolite profiling of tissues from db/db mice orally dosed with either vehicle or 10 mg/kg compound 309 was used to characterize in detail the effects of the present AMPK activators on nutrient pathways in a commonly used mouse model of type 2 diabetes. […] Since AMPK activation results in both acute and chronic changes to metabolic pathways, samples from non-fasted mice treated for three days with compound 309 were analyzed. Samples were collected thirty minutes after compound dosing when compound 309 plasma levels as well as tissue AMPK activation were maximal.

AMPK = AMPK activation in liver and muscle lysates after a single oral administration; type: in vivo, mouse; details: normal C57BL/6J mice, single oral administration of 10 mg/kg
glucose uptake = assay: Glucose uptake in vitro; type: cell-based
gluconeogenesis = assay: Gluconeogenesis in vitro; type: cell-based
db/db mice [3] = assay: [U-13C]-D-glucose tracer analysis in db/db mice; type: in vivo, mouse
Experimental: Male db/db mice (8 weeks) were orally gavaged once daily with vehicle, 5 mg/kg compound 309, or 10 mg/kg compound 309. Thirty minutes after dosing at day 8, 0.5 mg/kg of the metabolic tracer was administered, either via intraperitoneal injection for [U-^13C]-glucose or oral gavage for [U-^13C]-palmitate, followed by collection of liver, muscle, adipose tissue, and plasma at the timepoints indicated in the figure legends. Frozen samples were sent to SiDMAP, LLC (Los Angeles, Calif.) for isotope tracer analysis [Boros L G, Huang D, Heaney A P (2012) Fructose Drives Glucose via Direct Oxidation and Promotes Palmitate/Oleate Co-Release from Hepg2 Cells: Relevance with the Randle Cycle. Metabolomics 2: 107-115; Huang J, Simcox J, Mitchell T C, Jones D, Cox J, et al. (2013) Iron regulates glucose homeostasis in liver and muscle via AMP-activated protein kinase in mice. FASEB J.]. [U-^13C]-D-glucose and [U-^13C]-palmitate were from Sigma-Aldrich. Sample preparation, analysis, and informatics were performed on blinded samples. Statistical analyses were performed using the 2-tailed Student t test.
A more sensitive [U-^13C]-D-glucose tracer analysis was carried out as follows: Non-fasted db/db mice treated with vehicle or compound 309 for one week were given an intraperitoneal injection of an [U-^13C]-D-glucose tracer (0.5 mg/kg) followed by measurements of tracer carbon incorporation into various metabolites after glucose injection.

In the case of `COc1ccc(C(=O)C2CCN(C(=O)c3ccc(C(=O)NC4CCN(Cc5ccc(C#N)cc5)CC4)cn3)CC2)cc1` [Compound 309, N-(1-(4-cyanobenzyl)piperidin-4-yl)-6-(4-(4-methoxybenzoyl)piperidine-1-carbonyl)nicotinamide], the “13CO2 enrichment after [U-13C]-palmitate” value (db/db mice [1]; liver, adipose and skeletal muscle, 60 and 120 minutes after palmitate administration, treated one week) is reported as “increase”, the fatty acid oxidation (db/db mice [1]; liver, skeletal muscle and adipose tissue, chronic treatment of db/db mice) is reported as “directly upregulated” and the “dose-dependence of 13CO2 enrichment after [U-13C]-palmitate” value (db/db mice [1]; skeletal muscle, 5 and 10 mg/kg) is reported as “no dose-dependence”. For the same compound, the “time after compound dosing when plasma levels were maximal” value [2] was “thirty”, the “AMPK activation in liver and muscle lysates” value (AMPK) was “robust AMPK activation” and the glucose uptake (glucose uptake) was “robust enhancement”. For the same compound, the gluconeogenesis (gluconeogenesis) was “reduction”, the “skeletal muscle palmitate and myristate levels” value (db/db mice [3]; after saponification of muscle acylglycerols and acylcarnitines) was “significant decreases” and the “13CO2 release (glucose oxidation via the TCA cycle)” value (db/db mice [3]; all three tissues) was “increased”. For the same compound, the “13CO2 enrichment after [U-13C]-D-glucose” value (db/db mice [3]; liver and adipose tissues, 60 and 90 minutes post-tracer) was “clear dose-dependent increase”, the “13C-labeled fraction of palmitate” value (db/db mice [3]; plasma or liver, data not shown) was “no increase” and the “dose-dependence of complete glucose tracer oxidation” value (db/db mice [3]; skeletal muscle) was “no dose-dependence”. The “13C-labeled fatty acids in palmitate and myristate pools” value (db/db mice [3]; skeletal muscle, 60 and 90 minutes) was “significantly enriched”, the “13CO2 enrichment after [U-13C]-D-glucose vs vehicle” value (db/db mice [3]; skeletal muscle, 60 minutes) was “no differences” and the “level of 13C-labeled myristate compared to vehicle” value (db/db mice [3]; skeletal muscle, 90 minute timepoint) was “two-fold higher”. The “tracer oxidation (13CO2 enrichment) after [U-13C]-D-glucose” value (db/db mice [3]; skeletal muscle, 90 minutes) was “clearly sustained”.
